Test results from US6329342A, “Treatment of congestive heart failure with growth hormone secretagogues” (Eli Lilly and Company, priority 2000, dated 2001).
pEC50: −log10 of the molar value.

How the values were obtained:
Pituitary cells = assay: Pituitary Cell Culture Assay for Growth Hormone Secretion; assay type: cell-based, rat (male Sprague-Dawley); conditions: 0.25 h, read-out: GH secretion EC50; heading: GH secretion EC50; rat anterior pituitary cells, 15 min at 37° C.; Examples Part 1
From the text: Thirty-two 250 g male Sprague-Dawley rats were used for each assay. The animals were killed by decapitation and anterior pituitaries were removed and placed into ice cold culture medium. The pituitaries were sectioned into eighths and enzymatically digested using trypsin (Sigma Chemical) to weaken connective tissue. Pituitary cells were dispersed by mechanical agitation, collected, pooled and then seeded into 24-well plates (300,000 cells/well). After 4 days of culture, the cells formed an even monolayer. Cells were then washed with medium and challenged to secrete GH by the addition of GH secretagogues to the medium. After 15 min at 37° C., the medium was removed and stored frozen until radioimmunoassays for rat GH were performed. Doses of secretagogue were added in quadruplicate. Compounds disclosed herein are active in the assay as described. Both EC50 and efficacy values were calculated by the 4-parameter logistic equation. Such values were pooled and represented as mean +/- standard error, when appropriate.

heart failure = conditions: cited from earlier work

Structure (SMILES): COC(=O)[C@@H]1CCCN1C(=O)C(c1ccccc1)n1cnc(NC(=O)[C@H](COCc2ccccc2)NC(=O)C(C)(C)N)c1 (stereo partly drawn) [Example 8]
- pEC50 (Pituitary cells): 5.62

Structure (SMILES): COC(=O)[C@@H]1CCCN1C(=O)C(c1ccccc1)n1cnc(NC(=O)[C@@H](COCc2ccccc2)NC(=O)C(C)(C)N)c1 (stereo partly drawn) [Example 6]
- pEC50 (Pituitary cells): 5.26

Structure (SMILES): COc1ccccc1OCCNCC(O)COc1cccc2[nH]c3ccccc3c12 (stereo not drawn) [Carvedilol]
- mortality in patients (heart failure): dramatic reductions in mortality in patients
